Test results published in patent US10064848B2, “Pyridic ketone derivatives, method of preparing same, and pharmaceutical application thereof” (Shanghai Hengrui Pharmaceutical Co., Ltd., priority 2013, dated 2018).

Experiments:
[1] = test system: Colo205 cell; experiment: Proliferation inhibition on Colo205 (CCK8); format: cell-based; details: Homo sapiens, COLO 205, Colo205, 72 hours
Source text: Cell line used in the assay: Colo205 (Cell Bank of the Chinese Academy of Sciences, Catalog No. TCHu102).
The following in vitro cell assay is to determine the activity of the compounds of the present invention for inhibiting the proliferation of human colon cancer cell, and the activity is expressed as IC50. General programs of this kind of assay were as follows: First, the cell line to be tested (purchased from Cell Bank of the Chinese Academy of Sciences) was inoculated in a 96-well culture plate with a suitable cell concentration of 4000 cells/mL medium, and was cultured in a carbon dioxide incubator at 37° C., then grown overnight. The medium was replaced by new medium added with a series of concentrations (10000 nM, 1000 nM, 100 nM, 10 nM, 1 nM, 0.1 nM) of the test compound solutions. The plates were placed back in the incubator, and continuously cultured for 72 hours. After 72 hours, CCK8 (Cell Counting Kit-8, Catalog No.: CK04, purchased from colleagues chemical company) method was used to determine the proliferation inhibition activity of the test compounds. IC50 values were calculated from the inhibition data of the test compounds at a series of different concentrations.
(§1) The above assay was used to determine the biochemical activity of the compounds of the present invention.

[2] = target: T1, MAP2K2 (MEK2) Recombinant Human Protein (Homo sapiens, UniProt P36507); experiment: MEK2 kinase inhibition assay (Z'-LYTE, MEK2/ERK2 coupled); format: biochemical; details: recombinant human MEK2 with ERK2, Z'-LYTE, 1.5 hours at 25° C; read-out: IC50 for inhibiting MEK kinase (MEK2)
T1 construct: purchased Invitrogen PV3615 (MEK2); PV3314 (ERK2)
T1 sequence (P36507 whole entry): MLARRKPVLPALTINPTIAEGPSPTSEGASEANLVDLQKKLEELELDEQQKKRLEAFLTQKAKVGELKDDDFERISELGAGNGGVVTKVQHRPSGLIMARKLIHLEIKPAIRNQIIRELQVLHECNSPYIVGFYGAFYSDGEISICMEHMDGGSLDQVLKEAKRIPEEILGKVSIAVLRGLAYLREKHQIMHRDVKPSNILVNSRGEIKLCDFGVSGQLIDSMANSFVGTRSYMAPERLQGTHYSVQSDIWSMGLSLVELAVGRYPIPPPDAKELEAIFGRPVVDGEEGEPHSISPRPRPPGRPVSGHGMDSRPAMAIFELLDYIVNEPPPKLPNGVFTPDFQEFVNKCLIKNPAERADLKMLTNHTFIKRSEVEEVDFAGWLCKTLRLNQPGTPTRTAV
Description: MEK2 kinase activity was tested in vitro by the following method.
MEK kinase used in the assay:
MAP2K2 (MEK2) Recombinant Human Protein (Invitrogen, Catalog No. PV3615)
MAPK1 (ERK2) Recombinant Human Protein (Invitrogen, Catalog No. PV3314)
(§2) Kit used in the assay: Z′-LYTE™ Kinase Assay Kit-Ser/Thr 03 Peptide (Invitrogen, Catalog No. PV3176).
The following in vitro assay was used to determine the activity of the compounds of the present invention for inhibiting the […] MEK kinase. The test compound was dissolved in dimethyl sulfoxide to the desired concentration. 1× Buffer A (Invitrogen, Catalog No. PV3189) was prepared, ATP was diluted with 1× Buffer A to obtain 400 μM ATP solution, appropriate amounts of Z′-LYTE™ Ser/Thr 03 Peptide (Invitrogen, Catalog No. PV3200), MEK kinase (MEK 2) enzymes, (ERK2) enzymes and 1× Buffer A were mixed, and appropriate amounts of Z′-LYTE™ Ser/Thr 03 phosphoPeptide substrate (Invitrogen, Catalog No. PV3215) and 1× Buffer A were formulated into a mixture to be tested. The 4% DMSO solution of the test compound was prepared from 1× buffer and DMSO solution of the test compound. 2.5 μL DMSO solution of the test compound was added to a reaction well, and then 2.5 μL of 400 μM ATP solution, 5 μL of enzyme and substrate mixture were added to become a 10 μL reaction system. The reaction system was incubated for 1.5 hours at 25° C., and a mixture was prepared according to Reagent A:Buffer B=1:1024. 5 μL of a mixture of Reagent A (Invitrogen, Catalog No. PV3295) and Buffer B (Invitrogen, Item No. P3127) was added to a reaction well, the reaction system was incubated for 60 minutes at 25° C., and then the fluorescence was read by a NovoStar ELISA with excitation wavelength: 400 nm, and emission wavelength: 445 nm and 520 nm.
The above assay was used to determine the biochemical activity of the compounds of the present invention for inhibiting MEK kinase (MEK2).

[3] = test system: HCT116 cell; experiment: Proliferation inhibition on human colon cancer cell HCT116 (CCK8); format: cell-based; details: HCT-116, HCT116, 72 hours
Source text: The following in vitro cell assay was used to determine the activity of the compounds of the present invention for inhibiting the proliferation of human colon cancer cell, and the activity is expressed as IC50.
Cell line which was used in the experiment: HCT116 (Cell Bank of the Chinese Academy of Sciences, Catalog No. TCHu99).
General programs of this kind of assay were as follows: First, the cell line to be tested was inoculated in a 384-well culture plate with a suitable cell concentration of 1000 cells/well, and was cultured in an incubator under the conditions of 37° C. and 5% CO2, then grown overnight. The medium was replaced by new medium added with a series of concentrations (1000 nM, 250 nM, 62.50 nM, 15.63 nM, 3.91 nM, 0.98 nM, 0.24 nM, 0.06 nM, 0.015 nM, 0.004 nM) of the test compound solutions. The plates were placed back in the incubator, and continuously cultured for 72 hours. After 72 hours, CCK8 (Cell Counting Kit-8, Catalog No.: CK04, purchased from colleagues chemical company) method was used to determine the proliferation inhibition activity of the test compounds. IC50 values were calculated from the inhibition data of the test compounds at a series of different concentrations.
as §1

[4] = target: T2, MEK1 (Recombinant Human Protein) (Homo sapiens, UniProt Q02750); experiment: MEK1 kinase inhibition assay (Z'-LYTE Kinase Assay Kit-Ser/Thr 03 Peptide); format: biochemical; details: 4 hours at 37° C, read-out: IC50 for inhibiting MEK kinase (MEK1)
T2 construct: purchased Invitrogen PV3093
T2 sequence (Q02750 whole entry): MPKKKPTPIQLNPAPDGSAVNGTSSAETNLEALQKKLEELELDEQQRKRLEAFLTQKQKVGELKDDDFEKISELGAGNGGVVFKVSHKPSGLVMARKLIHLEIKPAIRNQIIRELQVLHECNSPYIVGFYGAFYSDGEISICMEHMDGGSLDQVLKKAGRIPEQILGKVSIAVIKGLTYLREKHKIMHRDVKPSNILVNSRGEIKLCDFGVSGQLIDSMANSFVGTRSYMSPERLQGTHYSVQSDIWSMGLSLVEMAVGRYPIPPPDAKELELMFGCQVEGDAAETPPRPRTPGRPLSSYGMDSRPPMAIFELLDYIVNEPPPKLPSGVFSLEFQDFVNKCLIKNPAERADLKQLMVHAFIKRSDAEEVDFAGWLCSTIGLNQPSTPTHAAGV
Description: MEK1 kinase activity was tested in vitro by the following method.
MEK kinase used in the assay: MEK1 (Recombinant Human Protein, Invitrogen, Catalog No. PV3093).
as §2
The following in vitro assay was used to determine the activity of the compounds of the present invention for inhibiting the […] MEK kinase. The test compound was dissolved in dimethyl sulfoxide to the desired concentration. 1× Buffer A (Invitrogen, Catalog No. PV3189) was prepared, ATP was diluted with 1× Buffer A to obtain 400 μM ATP solution, appropriate amounts of Z′-LYTE™ Ser/Thr 03 Peptide (Invitrogen, Catalog No. PV3200), MEK kinase (MEK1) Enzymes and 1× Buffer A were mixed, and appropriate amounts of Z′-LYTE™ Ser/Thr 03 phosphoPeptide substrate (Invitrogen, Catalog No. PV3215) and 1× Buffer A were formulated into a mixture to be tested. The 4% DMSO solution of the test compound was prepared from 1× buffer and DMSO solution of the test compound. 2.5 μL DMSO solution of the test compound was added to a reaction well, and then 1× Buffer A, 2.5 μL of 400 μM ATP solution, 5 μL of enzyme and substrate mixture were added to become a 10 μL of reaction system. The reaction system was incubated for 4 hours at 37° C., and a mixture was prepared according to Reagent A:Buffer B=1:1024. 5 μL of a mixture of Reagent A (Invitrogen, Catalog No. PV3295) and Buffer B (Invitrogen, Catalog No. P3127) was added to a reaction well, the reaction system was incubated for 60 minutes at 25° C. The fluorescence was read by a NovoStar ELISA with excitation wavelength: 400 nm, and emission wavelength: 445 nm and 520 nm.
The activity of the compounds of the present invention: The above assay was used to determine the biochemical activity of the compounds of the present invention for inhibiting MEK kinase (MEK1).

| SMILES | IC50 [1] [nM] | IC50 [2] [nM] | IC50 [3] [nM] | IC50 [4] [nM] |
| --- | --- | --- | --- | --- |
| Cc1ncccc1Oc1cc(=O)n(C)c(Nc2ccc(I)cc2F)c1C(N)=O [Example 29, 2-((2-fluoro-4-iodophenyl)amino)-1-methyl-4-((2-methylpyridin-3-yl)oxy)-6-oxo-1,6-dihydropyridine-3-carboxamide] | 0.8 | 217 | 8.9 | 3.6 |
| Cc1cc(F)ccc1Oc1cc(=O)n(C)c(Nc2ccc(I)cc2F)c1C(N)=O [Example 22, 4-(4-fluoro-2-methylphenoxy)-2-((2-fluoro-4-iodophenyl)amino)-1-methyl-6-oxo-1,6-dihydropyridine-3-carboxamide] | 6.1 | 121 | 10.3 | 4.3 |
| Cc1c(F)cccc1Oc1cc(=O)n(C)c(Nc2ccc(I)cc2F)c1C(N)=O [Example 1, 4-(3-fluoro-2-methylphenoxy)-2-((2-fluoro-4-iodophenyl)amino)-1-methyl-6-oxo-1,6-dihydropyridine-3-carboxamide] | 0.7 | 108 | 8.6 | 4.7 |
| Cc1ccc(Oc2cc(=O)n(C)c(Nc3ccc(I)cc3F)c2C(N)=O)cn1 [Example 31, 2-((2-fluoro-4-iodophenyl)amino)-1-methyl-4-((6-methylpyridin-3-yl)oxy)-6-oxo-1,6-dihydropyridine-3-carboxamide] | 3.6 | 351 | 36.4 | 3.9 |
| CCS(=O)(=O)Nc1cccc(Oc2cc(=O)n(C)c(Nc3ccc(I)cc3F)c2C(N)=O)c1C [Example 3, 4-(3-(ethylsulfonamido)-2-methylphenoxy)-2-((2-fluoro-4-iodophenyl)amino)-1-methyl-6-oxo-1,6-dihydropyridine-3-carboxamide] | 0.04 | 19.8 | 0.06 | 4.1 |
